Reference: patent publication US20130008801A1, “METHODS AND COMPOSITIONS FOR APPLICATIONS RELATED TO MICROBIOLOGICALLY INFLUENCED CORROSION” (priority 2010, published 2013)

Legend:
[1] = test system: Desulfovibrio desulfuricans ATCC7757 (SRB) on carbon steel coupons; test: MIC pitting test: SRB with carbon steel coupons in anaerobic vials, pits examined by SEM and IFM; format: cell-based, Desulfovibrio desulfuricans (ATCC 7757); details: promoter added to the test medium at a low concentration; C1018 carbon steel coupon, ATCC 1249 medium, 37° C., 7 days; versus no promoter (FIG. 2)
Protocol: Y-axis is pit depth in microns and x-axis pit position in microns.
(§1) The BCSR theory indicates a bottleneck in MIC due to SRB. To resolve the bottleneck, an electron carrier or mediator was added as an MIC “promoter” into 100 ml anaerobic vials containing SRB and carbon steel coupons. This MIC promoter is not corrosive by itself. After a week of SRB growth, coupons were examined using SEM and IFM (Infinite Focus Microscopy). Desulfovibrio desulfuricans ATCC7757 was used to represent SRB in this work. […] Liquid medium was deoxygenated using nitrogen sparging. To study the pits on a carbon steel coupon, the coupon surface was cleaned using an acid solution before SEM and IFM.

[2] = test system: planktonic or sessile SRB; test: SRB growth in the culture medium with MIC promoter; format: cell-based, Desulfovibrio desulfuricans (ATCC 7757); details: culture medium used in this work; repeated experiments
Excerpt: Second, the BCSR theory points to the existence of “MIC promoters.” Guided by this, we have successfully found a class of chemicals that can greatly accelerate BCSR leading to much more severe MIC pitting. […] This discovery leads to a new aspect of MIC monitoring, and a non-biocidal mitigation method that may even allow us to live with corrosive microbes with much reduced MIC pitting when the promoter's MIC acceleration effect is inhibited.
as §1

MIC pit depth [1]: dramatic MIC pit depth increase
SMILES: Cc1cc2nc3c(=O)[nH]c(=O)nc-3n(C[C@H](O)[C@H](O)[C@H](O)CO)c2cc1C [riboflavin]
planktonic or sessile SRB growth [2]: did not promote planktonic or sessile SRB growth
